Data taken from patent publication US8492105B2, “Screening method for an insulin resistance improving agent or a therapeutic agent for diabetes” (Fujitsu Limited, priority 2009, dated 2013).

What was measured:
[1] = target: T1, phosphorylation of Ser727 of STAT3 by ERK2 (Homo sapiens, UniProt P28482); assay: Phosphorylation inhibitory activity test by western blotting (anti-pS727 STAT); assay type: biochemical; conditions: 1 mM 5-iodotubercidin (final 1.14 mM), 22% DMSO (Sample 3); 30° C. 130 min; vs control Sample 1
T1 construct: purchased Biosource Inc. (Active ERK); Abcam Inc. (STAT3)
T1 sequence (P28482 whole entry): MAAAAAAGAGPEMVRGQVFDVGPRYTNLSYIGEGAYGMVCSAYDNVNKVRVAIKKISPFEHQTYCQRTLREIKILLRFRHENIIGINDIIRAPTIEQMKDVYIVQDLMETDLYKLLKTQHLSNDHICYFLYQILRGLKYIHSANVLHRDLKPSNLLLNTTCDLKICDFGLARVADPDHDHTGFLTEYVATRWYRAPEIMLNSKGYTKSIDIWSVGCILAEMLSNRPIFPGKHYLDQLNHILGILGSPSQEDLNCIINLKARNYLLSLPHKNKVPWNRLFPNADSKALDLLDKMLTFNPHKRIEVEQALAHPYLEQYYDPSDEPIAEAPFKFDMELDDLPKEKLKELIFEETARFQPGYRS
Method: The following ingredients were used at a composition indicated in Table 1 to prepare a reaction liquid: 5× reaction buffer (250 mM tris-HCl (pH 7.5), 50 mM magnesium chloride, 0.1% by mass bovine serum albumin (BSA) and 5 mM dithiothreitol (DTT)), Active ERK solution (0.1 mg/mL) (product of Biosource Inc.), STAT3 solution (0.2 mg/mL) (product of Abcam Inc.) and distilled water.
Also, 5-iodotubercidin (product of Calbiochem Inc.) was used as a control compound.
The 5-iodotubercidin was suspended in DMSO so that the final concentration thereof was adjusted to 5 mM.
Furthermore, distilled water was added to the samples so as to appropriately adjust the volume thereof, whereby reaction mixtures were obtained.
Each of the reaction mixtures was incubated at 30° C. for 130 min to allow Active ERK2 to phosphorylate the Ser727 of the STAT3.
After that, to terminate the phosphorylation, 0.5M ethylenediamine tetraacetate (EDTA) was added in an amount of 2.75 μL to the reaction mixtures serving as a control (Table 2: Sample 1 or 2), and was added in an amount of 5.5 μL to the reaction mixture containing the 5-iodotubercidin (Table 2: Sample 3) or the reaction mixture containing the peptide (Table 2: Sample 4). […]

db/db mice = assay: Efficacy test, 28-day daily intraperitoneal injection (blood glucose, insulin, HOMA-IR); assay type: in vivo, mouse
Method: Fifty mice described in Test Example 2 were used as a test animal.
Specifically, 3.8 mg of the above peptide was dissolved in 4.75 mL of physiological saline to prepare a 0.8 mg/mL peptide solution (hereinafter may be referred to as “peptide solution 2”). Then, 1.75 mL of the peptide solution 2 was dissolved in 3.5 mL of physiological saline to prepare a 0.27 mg/mL peptide solution (hereinafter may be referred to as “peptide solution 3”). Further, 1 mL of the peptide solution 3 was dissolved in 2 mL of physiological saline to prepare a 0.09 mg/mL peptide solution (hereinafter may be referred to as “peptide solution 4”).
A metformin solution used for an activity control group was prepared as follows. Specifically, 120 mg of metformin (product of Sigma Co.) was dissolved in 4 mL of physiological saline to prepare a 30 mg/mL metformin solution.
The efficacy test was conducted using the following five administration groups: a solvent (physiological saline) control administration group, a 150 mg/kg metformin administration group (serving as an activity control group), a 4.00 mg/kg peptide (expressed by SEQ ID No. 1) administration group, a 1.33 mg/kg peptide administration group and a 0.44 mg/kg peptide administration group. Each administration group had 10 mice.
The above-prepared solutions were intraperitoneally injected every day to all of the mice of the test groups at the corresponding doses given in the following Table 4 for 28 days. The body weight, the fasting blood glucose level, the postprandial blood glucose level and the fasting blood insulin level were measured by the below-described measuring method according to the measurement schedule given in the following Table 5.
The calculating method for the HOMA-IR value is described below.
To measure the fasting blood glucose level and blood insulin level, 50 μL of blood was sampled from the postorbital region on Day 0, Day 14 and Day 28 after administration. The serum was obtained in the same manner as in Test Example 2.
The postprandial blood glucose level was measured using blood sampled from the tail vein on Day 1, Day 13, and Day 27 after administration.
The blood glucose level and blood insulin level were measured in the same manner as in Test Example 2.
The insulin resistance was determined by the HOMA (homeostasis model assessment) method using the following calculation formula. HOMA-IR (index of insulin resistance)=fasting insulin level (μU/mL)×fasting blood glucose level (mmol/L)/22.5
All of the values are indicated as “average value±average error.” The important differences between the groups and within each group were evaluated through one-way variance analysis and Dunnett's multiple comparison. The p-values equal to or lower than 0.05 were regarded as statistically significant.

[2] = Metformin 150 mg/kg group, Day 0
[3] = Metformin 150 mg/kg intraperitoneal every day, Day 28
[4] = Metformin 150 mg/kg intraperitoneal every day, Day 28 minus Day 0

5-iodotubercidin
band of STAT3 whose Ser727 has been phosphorylated (western blotting) [1]: lower in intensity than the band detected in the control

CN(C)C(=N)N=C(N)N [Metformin, metformin]
Fasting blood insulin level (db/db mice; [2]): 8.81 ± 1.33 ng/mL | HOMA-IR value (db/db mice; [2]): 139.4 ± 22.7 | Fasting blood glucose level (db/db mice; Metformin 150 mg/kg group, Day 0, average ± average error, 10 mice): 16.3 ± 1.3 mM | Postprandial blood glucose level (db/db mice; Metformin 150 mg/kg group, Day 1, average ± average error, 10 mice): 22.5 ± 2.0 mM | Postprandial blood glucose level (db/db mice; Metformin 150 mg/kg intraperitoneal every day, Day 13): 25.2 ± 2.0 mM | Fasting blood glucose level (db/db mice; Metformin 150 mg/kg intraperitoneal every day, Day 14): 19.3 ± 1.5 mM | Postprandial blood glucose level (db/db mice; Metformin 150 mg/kg intraperitoneal every day, Day 27): 28.1 ± 1.6 mM | Fasting blood glucose level (db/db mice; [3]): 22.0 ± 3.1 mM | Fasting blood insulin level (db/db mice; [3]): 4.06 ± 0.84 ng/mL | HOMA-IR value (db/db mice; Metformin 150 mg/kg intraperitoneal every day, Day 28, # p < 0.05 vs. solvent control group): 79.6 ± 17.7^# | Increment in fasting blood glucose level (db/db mice; [4]): 5.8 ± 2.4 mM | Increment in fasting blood insulin level (db/db mice; [4]): -4.94 ± 1.77 ng/mL | Increment in fasting blood glucose level (db/db mice; Metformin 150 mg/kg intraperitoneal every day, Day 28 minus Day 0, listed as metformin): 5.8 ± 2.4 mM | Increment in postprandial blood glucose level (db/db mice; Metformin 150 mg/kg intraperitoneal every day, Day 28 minus Day 0 as printed, # p < 0.05 vs. solvent control group): 4.3 ± 2.2^# mM | suppression of increase in fasting blood glucose level (significance) (db/db mice; Metformin 150 mg/kg, Day 0 to Day 28, vs solvent control group): not statistically significant | HOMA-IR value (index of insulin resistance), change (db/db mice; Metformin 150 mg/kg, Day 28): significantly decreased
